Patent publication EP0561850B1, “7-SUBSTITUTED-6-FLUORO-1,4-DIHYDRO-4-OXO-QUINOLINE-3-CARBOXYLIC ACID COMPOUNDS USEFUL AS ANTIBACTERIAL AGENTS” (priority 1990, dated 1992)
Values after ≈ are worked out from the molar mass of the structure shown. Like-named read-outs stand apart in the source and are kept apart here.

Tests used:
Assay in all cases: Microbroth dilution (MHB) method, NCCLS M7-A2
[1] = tested on: Enterobacter cloacae S-130; format: cell-based; conditions: 35 °C/18 hr
Procedure: (§1) The test organisms were obtained from ATCC and clinical laboratories. The 96-well microtitre plates containing […] of serially diluted test compounds in Mueller Hinton Broth (MHB) (conc. range 64-0.03 µg/ml) were inoculated with […] of bacterial suspension in MHB so that an inoculum size of 5 x 10^5 cfu/ml was achieved.
(§2) EC. (S- 63): Eschericia coli Ecl. (S- 130): Enterobacter cloacae Pa. (S- 67): Pseudomonas aeruginosa Kp. (S- 80): Klebsiella pneumoniae Pr.
(§3) Microbroth Dilution (MHB) method; Inoculum, 5 x 10^5 cfu/ml; Incubation 35 °C/18 hr

[2] = tested on: Eschericia coli S-63; format: cell-based; conditions: Ec S-63, inoculum 5 x 10^5 cfu/ml, 35 °C/18 hr
Procedure: as §1, §2, §3

[3] = tested on: Klebsiella pneumoniae S-80; format: cell-based; conditions: Kp S-80, MHB, inoculum 5 x 10^5 cfu/ml, 35 °C/18 hr
Procedure: as §1, §2, §3

[4] = tested on: Providencia rettgeri S-121; format: cell-based; conditions: 35 °C/18 hr
Procedure: as §1, §2, §3

[5] = tested on: Pseudomonas aeruginosa S-67; format: cell-based; conditions: Pa S-67, MHB, inoculum 5 x 10^5 cfu/ml, 35 °C/18 hr
Procedure: as §1, §2, §3

[6] = tested on: Staphylococcus aureus S-127; format: cell-based; conditions: 35 °C/18 hr
Procedure: as §1, §2, §3

[7] = tested on: Sa 127M; format: cell-based, Staphylococcus aureus; conditions: inoculum 5 x 10^5 cfu/ml, 35 °C/18 hr
Procedure: as §1, §2, §3

[8] = Enterobacter cloacae, S130, Ecl S-130, inoculum 5 x 10^5 cfu/ml, read-out: MIC
[9] = Klebsiella pneumoniae, S80, read-out: MIC
[10] = Providencia rettgeri, S121, Pr S-121, inoculum 5 x 10^5 cfu/ml, read-out: MIC
[11] = Pseudomonas aeruginosa, S67, read-out: MIC
[12] = Staphylococcus aureus, S127, Sa S-127, inoculum 5 x 10^5 cfu/ml, read-out: MIC
[13] = Staphylococcus aureus, read-out: MIC

Molecule | MIC [1, 8] [µg/mL] | MIC ([2]; read-out: MIC) [µg/mL] | MIC [3, 9] [µg/mL] | MIC [4, 10] [µg/mL] | MIC [5, 11] [µg/mL] | MIC [6, 12] [µg/mL] | MIC [7, 13] [µg/mL] | MIC ([1]; Ecl S-130, inoculum 5 x 10^5 cfu/ml) | MIC [2] | MIC [3] | MIC ([4]; Pr S-121, inoculum 5 x 10^5 cfu/ml) | MIC [5] [µg/mL] | MIC ([6]; Sa S-127, inoculum 5 x 10^5 cfu/ml) [µg/mL] | MIC [7] [µg/mL]
Cc1c(F)c(N2CCC(n3cc(-c4ccccc4)nn3)C2)c(F)c2c1c(=O)c(C(=O)O)cn2C1CC1 (stereo not shown) [Example 48, 1-cyclopropyl-6,8-difluoro-5-methyl-7-[3(4-phenyl-1,2,3-triazol-1-yl)-pyrrolidin-1-yl]-1,4-dihydro-4-oxo-quinoline-3-carboxylic acid] | 4 (≈ 8.14 µM) | 1 (≈ 2.03 µM) | 4 (≈ 8.14 µM) | 0.015 (≈ 0.0305 µM) | 16 (≈ 32.6 µM) | 0.015 (≈ 0.0305 µM) | 0.015 (≈ 0.0305 µM) | – | – | – | – | – | – | –
COc1c(N2CCC(n3cc(C)nn3)C2)c(F)cc2c(=O)c(C(=O)O)cn(C3CC3)c12 (stereo not shown) [Example 33] | 1 (≈ 2.34 µM) | 0.12 (≈ 0.281 µM) | 1 (≈ 2.34 µM) | 2 (≈ 4.68 µM) | 8 (≈ 18.7 µM) | ≤ 0.015 | ≤ 0.015 | – | – | – | – | – | – | –
CCn1cc(C(=O)O)c(=O)c2cc(F)c(N3CCNCC3)cc21 [MFLX, Norfloxacin, reference compound] | 0.12 (≈ 0.376 µM) | 0.06 (≈ 0.188 µM) | 0.12 (≈ 0.376 µM) | 1 (≈ 3.13 µM) | 1 (≈ 3.13 µM) | 1 (≈ 3.13 µM) | 16 (≈ 50.1 µM) | – | – | – | – | – | – | –
Nc1cn(C2CCN(c3c(F)c(N)c4c(=O)c(C(=O)O)cn(C5CC5)c4c3F)C2)nn1 (stereo not shown) [Example 41, 5-Amino-1-cyclopropyl-6,8-difluoro-7-(3-(4-amino-1,2,3-triazol-1-yl)-pyrrolidin-1-yl)-1,4-dihydro-4-oxo-quinoline-3-carboxylic acid] | – | 0.12 (≈ 0.278 µM) | – | – | – | 0.03 (≈ 0.0695 µM) | – | – | – | – | – | – | – | –
O=C(O)c1cn(C2CC2)c2c(F)c(N3CCC(n4cnnn4)C3)c(F)cc2c1=O (stereo not shown) [Example 52, 1-Cyclopropyl-6,8-fluoro-7-[3-(1,2,3,4-tetrazol-1-yl)pyrrolidin-1-yl]-1,4-dihydro-4-oxo-quinoline-3-carboxylic acid] | – | 0.06 (≈ 0.149 µM) | 0.25 (≈ 0.621 µM) | 0.12 (≈ 0.298 µM) | 2 (≈ 4.97 µM) | 0.06 (≈ 0.149 µM) | – | – | – | – | – | – | – | –
Nc1cn(C2CCN(c3c(F)cc4c(=O)c(C(=O)O)cn(C5CC5)c4c3F)C2)nn1 (stereo not shown) [Example 42, 1-Cyclopropyl-6,8-difluoro-7-(3-(4-amino-1,2,3-triazol-1-yl)-pyrrolidin-1-yl)-1,4-dihydro-4-oxo-quinoline-3-carboxylic acid] | 1 (≈ 2.4 µM) | 0.5 (≈ 1.2 µM) | 1 (≈ 2.4 µM) | 1 (≈ 2.4 µM) | 4 (≈ 9.61 µM) | 0.25 (≈ 0.6 µM) | 1 (≈ 2.4 µM) | – | – | – | – | – | – | –
NCc1cnnn1C1CCN(c2c(F)cc3c(=O)c(C(=O)O)cn(C4CC4)c3c2F)C1 (stereo not shown) [Example 44] | 0.25 (≈ 0.581 µM) | 0.5 (≈ 1.16 µM) | 1 (≈ 2.32 µM) | 1 (≈ 2.32 µM) | 8 (≈ 18.6 µM) | 25 (≈ 58.1 µM) | – | – | – | – | – | – | – | –
COc1c(N2CCC(n3cncn3)C2)c(F)cc2c(=O)c(C(=O)O)cn(C3CC3)c12 (stereo not shown) [Example 34, 1-Cyclopropyl-6-fluoro-7-[3-(1,2,4-triazol-1-yl)pyrrolidin-1-yl]-8-methoxy-1,4-dihydro-4-oxo-quinoline-3-carboxylic acid] | 0.5 (≈ 1.21 µM) | 0.5 (≈ 1.21 µM) | 0.5 (≈ 1.21 µM) | 0.5 (≈ 1.21 µM) | 8 (≈ 19.4 µM) | 0.5 (≈ 1.21 µM) | – | – | – | – | – | – | – | –
C[C@H]1COc2c(N3CCC(n4cncn4)C3)c(F)cc3c(=O)c(C(=O)O)cn1c23 (single isomer, unassigned; (-)) [Example 40] | 1 (≈ 2.5 µM) | 1 (≈ 2.5 µM) | 1 (≈ 2.5 µM) | 0.5 (≈ 1.25 µM) | 8 (≈ 20 µM) | 1 (≈ 2.5 µM) | 0.5 (≈ 1.25 µM) | – | – | – | – | – | – | –
Norfloxacin - choline salt [MFLX-, reference compound] | – | – | – | – | – | – | – | .25 µg/mL | .06 µg/mL | .25 µg/mL | .12 µg/mL | 1 | 2 | 16
